Measured values: patent US20120004235A1, “METHODS TO TREAT CANCER” (Rutgers, The State University of New Jersey, priority 2009, published 2012)
Where “and” joins values, the source holds several entries; their conditions need not be identical. Equal values may be shown once. Where a name gives a salt, the structure may show the parent alone. Read-outs that look alike come from different tables or passages of the source.

Legend:
[1] = test system: Human H460 Non-Small Cell Lung Carcinoma Tumor Xenograft Model; assay: Test D xenograft, Compound 2 free base; format: in vivo, nu/nu mice; settings: qod × 3
Description: (§1) The anti-tumor activity of Compound 2 (free base) was evaluated against a variety of human tumor xenograft models. A summary of the studies, including tumor type, dosing and administration, growth inhibition, and major findings is presented below.

[2] = test system: NCI-H460 human non-small cell lung carcinoma xenograft; assay: Compound 2 citrate salt vs. NCI-H460 xenograft model (pemetrexed, topotecan, cisplatin controls); settings: for mean tumor volume of the animals not at endpoint: 3 animals
[3] = test system: NCI-H460 human non-small cell lung carcinoma xenograft; assay: Comparison dose schedule study in the NCI-H460 xenograft model; format: in vivo, nude (nu/nu) mice
Excerpt: Irinotecan served as the positive control.

[4] = test system: MDA-MB-231 human breast tumor xenograft; settings: for animals not yet reached the study endpoint of 1500 mm^3: Day 90
[5] = test system: HT-29 human colon tumor xenograft; assay: Compound 2 citrate salt vs. HT-29 human colon tumor model
[6] = test system: NCI-H460 human non-small cell lung carcinoma xenograft; assay: Compound 2 citrate salt vs. NCI-H460 xenograft model (docetaxel control)
[7] = test system: HCT-116 human colon tumor xenograft; assay: Compound 2 citrate salt vs. HCT-116 human colon tumor xenograft model (IV)
[8] = test system: Human SK-MEL-3 Melanoma Tumor Xenograft Model; assay: Test D xenograft, Compound 2 free base; format: in vivo, nu/nu mice; settings: 90 mg/kg/day IP, qd × 5
Description: as §1

[9] = test system: Human LOX-IMVI Melanoma Tumor Xenograft Model; assay: Test D xenograft, Compound 2 free base; settings: 90 mg/kg/day IP, qd × 5
[10] = test system: Human NCI-H292 Lung Tumor Xenograft Model; assay: Test D xenograft, Compound 2 free base; settings: qod × 3
[11] = test system: Human H1299 Lung Tumor Xenograft Model; assay: Test D xenograft, Compound 2 free base; settings: qod × 3
[12] = test system: Human MDA-MB-231 Breast Tumor Xenograft Model; assay: Test D xenograft, Compound 2 free base; settings: qod × 3
[13] = test system: Human DLD-1 Colon Tumor Xenograft Model; assay: Test D xenograft, Compound 2 free base; format: in vivo, nu/nu mice; settings: 60 mg/kg/day IV
[14] = test system: Human HCT-15 Colon Tumor Xenograft Model; assay: Test D xenograft, Compound 2 free base; format: in vivo, nu/nu mice; settings: 60 mg/kg/day IV, q4d×3
[15] = test system: Human 786-0 Renal Cell Tumor Xenograft Model; assay: Test D xenograft, Compound 2 free base; format: in vivo, nu/nu mice; settings: 60 mg/kg/day IV, q4d×3
[16] = test system: HCT-116 human colon tumor xenograft; assay: Compound 2 after oral administration vs. the HCT-116 xenograft model; settings: 60 mg/kg/day IP, q4d×3
[17] = 2.04 mg/kg/day IP, qod×3 weekly for 2 cycles
[18] = 2.72 mg/kg/day IP, qod×3 weekly for 2 cycles
[19] = 4.08 mg/kg/day IP, qod×3 weekly for 2 cycles
[20] = all dosages (0.68, 1.36, 2.72 mg/kg IP, qod×3 weekly for 2 cycles)
[21] = 1.36 mg/kg/day IV, qod×3 weekly for 2 cycles
[22] = 2.72 mg/kg/day IV, qod×3 weekly for 2 cycles
[23] = 2.72 mg/kg/day IP, qod×3 weekly for 2 cycles, Day 53
[24] = 60 mg/kg/day IP, qod×3 weekly for 2 cycles

Compound: N.N.[Cl][Pt][Cl] [Cisplatin]
- Increase in Life Span (ILS) ([1]; 3.3 mg/kg/day IP): 1.4x
- Tumor Growth Delay T-C ([1]; 3.3 mg/kg/day IP): 11 days
- Tumor Growth Inhibition T/C (tumor volume) ([1]; 3.3 mg/kg/day IP): 44.5%
- antitumor activity ([2]; 0.75 and 1.5 mg/kg/day IP, qd×5): only active at the high dose
- antitumor activity (TGI and TGD evaluation points) ([2]; high dose (1.5 mg/kg/day IP, qd×5)): low activity at both evaluation points

Compound: CNCCn1c(=O)c2cc(OC)c(OC)cc2c2cnc3cc4c(cc3c21)OCO4 [Compound 2 citrate salt, 8,9-dimethoxy-2,3-methylenedioxy-5-[2-(N-methylamino)ethyl]-5H-dibenzo[c,h]1,6-naphthyridin-6-one]
- maximum weight loss ([3]; 4.90 mg/kg/day IP, q4d×5, on Day 34): 24.2%
- TGD [4, 17]: 52 days
- animals not yet reached the study endpoint of 1500 mm^3 [4, 17]: 2 of 8
- TGD [4, 18]: > 58 days
- animals not yet reached the study endpoint of 1500 mm^3 [4, 18]: 4 of 8
- ILS ([4]; 3.27 mg/kg/day IP, qd×5): > 2.0 fold
- TGD (T-C) ([4]; 3.27 mg/kg/day IP, qd×5): 42 days
- TGI (T/C) ([4]; 3.27 mg/kg/day IP, qd×5): 9.5%
- maximum weight loss ([4]; 3.27 mg/kg/day IP, qd×5): 15.7%
- mice remaining on Day 90 ([4]; 3.27 mg/kg/day IP, qd×5): one
- TGI (T/C) [5, 18]: 50.1%
- TGD ([5]; 2.72 mg/kg/day IP, qod×3 weekly for 2 cycles, vs untreated control): 16 days
- ILS [5, 19]: 1.7 fold
- TGD (T-C) [5, 19]: 31 days
- TGI (T/C) [5, 19]: 18.9%
- tolerability ([5]; dose levels tested (1.36, 2.72, 4.08 mg/kg/day IP, qod×3 weekly for 2 cycles)): well tolerated
- ILS [6, 18]: 2.0 fold
- TGD (T-C) [6, 18]: 24 days
- TGI (T/C) [6, 18]: 35.1%
- body weight loss [6, 20]: < 20%
- toxic deaths [6, 20]: no toxic deaths
- ILS [7, 21]: 1.6 fold
- TGD (T-C) [7, 21]: 18 days
- TGI (T/C) [7, 21]: 45.0%
- ILS [7, 22]: > 2.2 fold
- TGD [7, 22]: > 34 days
- mice survivors at conclusion of the study ([7]; 2.72 mg/kg/day IV, qod×3 weekly for 2 cycles, Day 62): 50%
- weight loss ([7]; 5.44 mg/kg/day IV, qod×3 weekly for 2 cycles): > 30%
- toxic deaths ([7]; 5.44 mg/kg/day IV, qod×3 weekly for 2 cycles, groups of 8): ⅝
- TGI (T/C) ([2]; 2.59 mg/kg/day IP, qd×5): 30.5%
- toxic deaths [2, 18]: no toxic deaths
- animals not yet reached the study endpoint of 2000 mm^3 [2, 23]: 3 of 8
- weight loss recovered at study termination [2, 23]: approximately 12%
- mean tumor volume of the animals not at endpoint [2, 23]: 1583 mm^3
- maximum weight loss ([2]; 2.72 mg/kg/day IP, qod×3 weekly for 2 cycles, on Day 22): 22.3%
- TGI (T/C) ([2]; 3.27 mg/kg/day IP, qd×5): 33.5%
- animals not yet reached the study endpoint of 2000 mm^3 ([2]; 3.27 mg/kg/day IP, qd×5): 3 of 8
- mean tumor volume of the animals not at endpoint ([2]; 3.27 mg/kg/day IP, qd×5): 1722 mm^3

Compound: CN(C)/N=N/c1[nH]cnc1C(N)=O [Dacarbazine, reference compound]
- Increase in Life Span (ILS) [8]: 1.0x
- Tumor Growth Delay T-C [8]: 0 days
- Tumor Growth Inhibition T/C (tumor volume) [8]: 88.5%
- Increase in Life Span (ILS) [9]: 2.0x
- Tumor Growth Delay T-C [9]: 28 days and 14 days
- Tumor Growth Inhibition T/C (tumor volume) [9]: 80.6%

Compound: CC(=O)O[C@@]12CO[C@@H]1C[C@H](O)[C@@]1(C)C(=O)[C@H](O)C3=C(C)[C@@H](OC(=O)[C@H](O)[C@@H](NC(=O)OC(C)(C)C)c4ccccc4)C[C@@](O)([C@@H](OC(=O)c4ccccc4)[C@H]21)C3(C)C [Docetaxel, reference compound]
- Increase in Life Span (ILS) ([1]; 12 mg/kg/day IV): 1.4x
- Tumor Growth Delay T-C ([1]; 12 mg/kg/day IV): 11 days
- Tumor Growth Inhibition T/C (tumor volume) ([1]; 12 mg/kg/day IV): 49.8%
- Increase in Life Span (ILS) ([10]; 16 mg/kg/day IV): 2.1x
- Tumor Growth Delay T-C ([10]; 16 mg/kg/day IV): 39 days
- Tumor Growth Inhibition T/C (tumor volume) ([10]; 16 mg/kg/day IV): 8.7%
- Increase in Life Span (ILS) ([10]; 20 mg/kg/day IV): 2.1x
- Tumor Growth Delay T-C ([10]; 20 mg/kg/day IV): 39 days
- Tumor Growth Inhibition T/C (tumor volume) ([10]; 20 mg/kg/day IV): 6.0%
- Increase in Life Span (ILS) ([11]; 16 mg/kg/day IV): 1.4x
- Tumor Growth Delay T-C ([11]; 16 mg/kg/day IV): 11 days
- Tumor Growth Inhibition T/C (tumor volume) ([11]; 16 mg/kg/day IV): 35.2%
- Increase in Life Span (ILS) ([11]; 20 mg/kg/day IV): 1.6x
- Tumor Growth Delay T-C ([11]; 20 mg/kg/day IV): 17 days
- Tumor Growth Inhibition T/C (tumor volume) ([11]; 20 mg/kg/day IV): 20.7%
- Increase in Life Span (ILS) ([12]; 16 mg/kg/day IV): >2.3x
- Tumor Growth Delay T-C ([12]; 16 mg/kg/day IV): >47 days
- Tumor Growth Inhibition T/C (tumor volume) ([12]; 16 mg/kg/day IV): 4.8%
- Increase in Life Span (ILS) ([12]; 20 mg/kg/day IV): >2.3x
- Tumor Growth Delay T-C ([12]; 20 mg/kg/day IV): >47 days
- Tumor Growth Inhibition T/C (tumor volume) ([12]; 20 mg/kg/day IV): 4.0%
- TGD (T-C) ([6]; 20 mg/kg/day IV, qod × 3): 21 days
- TGI (T/C) ([6]; 20 mg/kg/day IV, qod × 3): 22.7%
- time to recover the weight loss ([6]; 20 mg/kg/day IV, qod × 3): ≤ 13 days
- toxic deaths ([6]; 20 mg/kg/day IV, qod × 3): no toxic deaths
- maximum weight loss ([6]; 20 mg/kg/day IV, qod×3, on Day 25): 26.4%

Compound: COc1cc2c(cc1OC)-c1cnc3cc4c(cc3c1N(CCN(C)C)C2)OCO4 [Example 17, 8,9-Dimethoxy-2,3-methylenedioxy-5-[2-(N,N-dimethylamino)ethyl]-5,6-dihydro-dibenzo[c,h]1,6-naphthyridine]
- melting point: 271 to 273 °C (dec.)

Compound: COc1cc2c(cc1OC)-c1cnc3cc4c(cc3c1N(C(C)CN(C)C)C2)OCO4 (stereo not shown) [Example 18, 8,9-Dimethoxy-2,3-methylenedioxy-5-[2-(N,N-dimethylamino)-1-methylethyl]-5,6-dihydro-dibenzo[c,h]1,6-naphthyridine]
- melting point: 153 to 154 °C

Compound: CCN(CC)CCn1c(=O)c2cc(OC)c(OC)cc2c2cnc3cc4c(cc3c21)OCO4 [Example 19, 8,9-Dimethoxy-2,3-methylenedioxy-5-[2-(N,N-diethylamino)ethyl]-5H-dibenzo[c,h]1,6-naphthyridin-6-one]
- melting point: 221 to 223 °C (dec.)

Compound: CCc1c2c(nc3ccc(OC(=O)N4CCC(N5CCCCC5)CC4)cc13)-c1cc3c(c(=O)n1C2)COC(=O)[C@]3(O)CC [Irinotecan, reference compound]
- ILS ([3]; 60 mg/kg/day IP, q4d×3): 1.7 fold
- TGD (T-C) ([3]; 60 mg/kg/day IP, q4d×3): 14 days
- ILS [3, 24]: 2.5 fold
- TGD (T-C) [3, 24]: 29 days
- TGI (T/C) [3, 24]: 19.0%
- Tumor Growth Delay T-C ([13]; q4d×3): 5 days
- Increase in Life Span (ILS) ([13]; q4d × 3, listed as CPT-11): 1.1x
- Increase in Life Span (ILS) [14]: 1.7x
- Tumor Growth Delay T-C [14]: 28 days
- Increase in Life Span (ILS) [15]: 1.4x
- Tumor Growth Delay T-C [15]: 17 days
- ILS [4, 24]: > 2.0 fold
- TGD (T-C) [4, 24]: 38 days
- TGI (T/C) [4, 24]: 10%
- body weight loss [4, 24]: 20%
- TGD ([5]; 60 mg/kg/day IV, q4d×3): no TGD was observed
- TGI (T/C) ([5]; 60 mg/kg/day IV, q4d×3): 52.7%
- tolerability ([5]; 60 mg/kg/day IV, q4d×3): well tolerated
- ILS [16]: > 1.5 fold
- TGD (T-C) [16]: > 18 days
- body weight loss [16]: < 10%
- animals remaining at study termination ([16]; Day 53): 8 of 9
- ILS ([7]; 60 mg/kg/day IV, q4d×3): 1.5 fold
- TGD (T-C) ([7]; 60 mg/kg/day IV, q4d×3): 14 days
- tolerability ([7]; 60 mg/kg/day IV, q4d×3): tolerated well
